Assay results taken from PubChem BioAssay (NCI).
Several values for one entry are separate records, joined by “and”; a condition that tells them apart may be missing. Equal entries are not always repeated.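 Five compound concentrations were applied to cells in 96-well plates for 48 hours; endpoints were derived by simple linear interpolation of the resulting dose-response curve. GI50 marks 50% less growth. Definition used: TGI = concentration required for complete inhibition of growth.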

Assays:
Experiment in all cases: NCI anticancer screen, dose series, 48 h
[1] = system: MDA-MB-468 breast
[2] = system: CAKI-1 renal
[3] = system: MOLT-4 leukemia
[4] = system: BT-549 breast
[5] = system: COLO 205 colon
[6] = system: T-47D breast
[7] = system: MDA-MB-435
[8] = system: KM12 colon
[9] = system: UO-31 renal
[10] = system: UACC-257 melanoma
[11] = system: OVCAR-8 ovarian
[12] = system: PC-3 prostate
[13] = system: MALME-3M melanoma
[14] = system: SF-268 CNS
[15] = system: OVCAR-5 ovarian
[16] = system: RXF 393 renal
[17] = system: NCI-H226 lung
[18] = system: OVCAR-4 ovarian
[19] = system: A549 NSCLC
[20] = system: HL-60(TB) leukemia
[21] = system: U251 CNS
[22] = system: SF-539 CNS
[23] = system: A498 renal
[24] = system: HT29 colon
[25] = system: ACHN renal
[26] = system: M14 melanoma
[27] = system: SK-MEL-5 melanoma
[28] = system: HOP-62 NSCLC
[29] = system: SNB-19 CNS
[30] = system: 786-0 renal
[31] = system: NCI-H460 lung
[32] = system: HCT-15 colon
[33] = system: NCI-H522 lung
[34] = system: SK-MEL-2 melanoma
[35] = system: HCT-116 colon
[36] = system: SK-MEL-28 melanoma
[37] = system: EKVX NSCLC
[38] = system: SR leukemia
[39] = system: SN12C renal
[40] = system: HOP-92 NSCLC
[41] = system: MCF7 breast
[42] = system: SNB-75 CNS
[43] = system: DU-145 prostate
[44] = system: NCI-H23 lung
[45] = system: TK-10 renal
[46] = system: HCC-2998 colon
[47] = system: SK-OV-3 ovarian
[48] = system: K-562 leukemia
[49] = system: IGROV1 ovarian
[50] = system: OVCAR-3 ovarian
[51] = system: RPMI-8226 leukemia
[52] = system: SF-295 CNS
[53] = system: CCRF-CEM leukemia
[54] = system: UACC-62 melanoma
[55] = system: NCI/ADR-RES ovarian

O=S(=O)(CCCl)c1ccc(Cl)cc1
GI50 [1]: 1.82 µM
TGI [1]: 5.77 µM

C/C(=N\NC(=S)Nc1ccc(Br)cc1)c1cc2ccccc2oc1=O
GI50 [1]: 1.22 µM
TGI [1]: 5.82 µM

CCNC(=O)c1noc(-c2cc(C(C)C)c(O)cc2O)c1-c1ccc(CN2CCOCC2)cc1
GI50 [1]: < 0.01 µM
TGI [1]: 0.055 µM

CCCCn1c(-c2ccc(C(=O)O/N=C(\N)c3ccc4c(c3)OCO4)cc2)nc(-c2ccccc2)c1-c1ccccc1
GI50 [1]: 3.83 µM
TGI [1]: > 100 µM

c1ccc2[nH]c(-c3ccc(Nc4nc(N5CCCCC5)nc(N5CCOCC5)n4)cc3)nc2c1
GI50 [1]: 2.68 µM
TGI [1]: 6.51 µM

COc1ccc(C(=O)c2ccc([As]=O)cc2)cc1 (stereo not given)
GI50 [1]: 0.0692 µM
TGI [1]: 0.242 µM

O=C(Nc1ccc(Cl)c(Cl)c1)NS(=O)(=O)c1cnccc1Oc1ccc(F)cc1
GI50 [1]: 4.26 µM
TGI [1]: > 100 µM

CCc1c2c(nc3ccc(OC(=O)N4CCC(N5CCCCC5)CC4)cc13)-c1cc3c(c(=O)n1C2)COC(=O)[C@]3(O)CC
TGI [1]: 1.79 µM and 1.51 µM and 5.77 µM

C=C1CC[C@@H]2[C@]3(C)COC(c4cn[nH]c4-c4ccc(F)cc4)O[C@@H]3CC[C@@]2(C)[C@@H]1C/C=C1/C(=O)OCC1O (stereo not given in full)
GI50 [2]: 21.5 µM
TGI [2]: 50 µM
GI50 [3]: 20.2 µM
TGI [3]: 77.4 µM
GI50 [4]: 13.4 µM
TGI [4]: 27.5 µM
GI50 [5]: 18.2 µM
TGI [5]: 35 µM
GI50 [6]: 15.7 µM
TGI [6]: 47.7 µM
GI50 [7]: 20.8 µM
TGI [7]: 52.9 µM
GI50 [8]: 22.5 µM
TGI [8]: 57 µM
GI50 [9]: 13.7 µM
TGI [9]: 26.6 µM
GI50 [10]: 22.3 µM
TGI [10]: 69.2 µM
GI50 [11]: 23.3 µM
TGI [11]: > 100 µM
GI50 [12]: 15.6 µM
TGI [12]: 43.9 µM
GI50 [13]: 16 µM
TGI [13]: 30 µM
GI50 [14]: 20.7 µM
TGI [14]: 74.9 µM
GI50 [15]: 18.2 µM
TGI [15]: 32.2 µM
GI50 [16]: 13.7 µM
TGI [16]: 27 µM
GI50 [17]: 13.1 µM
TGI [17]: 27.6 µM
GI50 [18]: 27.5 µM
TGI [18]: > 100 µM
GI50 [19]: 21.4 µM
TGI [19]: 62.2 µM
GI50 [20]: 12.8 µM
TGI [20]: 40.2 µM
GI50 [21]: 12.9 µM
TGI [21]: 30.5 µM
GI50 [22]: 14.5 µM
TGI [22]: 27.6 µM
GI50 [23]: 17 µM
TGI [23]: 30.7 µM
GI50 [24]: 16.4 µM
TGI [24]: 30.2 µM
GI50 [25]: 15.1 µM
TGI [25]: 28.4 µM
GI50 [26]: 16.5 µM
TGI [26]: 34.1 µM
GI50 [27]: 15.5 µM
TGI [27]: 28.9 µM
GI50 [28]: 18.1 µM
TGI [28]: 34.4 µM
GI50 [29]: 16 µM
TGI [29]: 29.5 µM
GI50 [1]: 11.9 µM
TGI [1]: 24.6 µM
GI50 [30]: 16.6 µM
TGI [30]: 30.2 µM
GI50 [31]: 19.7 µM
TGI [31]: 42.7 µM
GI50 [32]: 14.9 µM
TGI [32]: 30.5 µM
GI50 [33]: 16.7 µM
TGI [33]: 30.9 µM
GI50 [34]: 16.5 µM
TGI [34]: 31.6 µM
GI50 [35]: 14.9 µM
TGI [35]: 28.1 µM
GI50 [36]: 16.8 µM
TGI [36]: 30.4 µM
GI50 [37]: 13.5 µM
TGI [37]: 26.3 µM
GI50 [38]: 16.7 µM
TGI [38]: 56.4 µM
GI50 [39]: 15.4 µM
TGI [39]: 29.6 µM
GI50 [40]: 14.7 µM
TGI [40]: 34.9 µM
GI50 [41]: 7.52 µM
TGI [41]: 22 µM
GI50 [42]: 14.1 µM
TGI [42]: 43.8 µM
GI50 [43]: 19.6 µM
TGI [43]: 43.5 µM
GI50 [44]: 15.6 µM
TGI [44]: 29.9 µM
GI50 [45]: 19 µM
TGI [45]: 33 µM
GI50 [46]: 16.3 µM
TGI [46]: 29.8 µM
GI50 [47]: 21.8 µM
TGI [47]: 43.5 µM
GI50 [48]: 13.1 µM
TGI [48]: 49.6 µM
GI50 [49]: 16.4 µM
TGI [49]: 30.6 µM
GI50 [50]: 15.9 µM
TGI [50]: 32.9 µM
GI50 [51]: 11.5 µM
TGI [51]: 60.8 µM
GI50 [52]: 16.6 µM
TGI [52]: 30.7 µM
GI50 [53]: 4.6 µM
TGI [53]: 38.5 µM
GI50 [54]: 14.3 µM
TGI [54]: 27.3 µM
GI50 [55]: 17.7 µM
TGI [55]: 85.9 µM
